Publication PMC8400955 (Pharmaceuticals, 2021)
Like-named read-outs stand apart in the source and are kept apart here.

Experiments:
CYP2B6 = test: CYP induction (enzyme activity) in cryopreserved human hepatocytes, CYP2B6; settings: for fold induction at 72 h, 1000 µM / fold induction at 72 h, 30 µM: human, plated cryopreserved human hepatocytes; for Percent of Control / fold induction at 72 h, 30 µM: 30 µM
Description: (§1) The UPLC–MS/MS (SHIMADZU, LC-30AD) equipped with waters Xselect®HSS T3 2.5 μm (2.1 × 50 mm) was used to detect the marker metabolites in the enzyme activity assay. The fold-induction enzyme activity was determined using the ratio calculation (the calculation details are available in the Supplementary Materials).
(§2) CYP activity was expressed as pmol/min/million cells where pmol was defined as the amount of metabolite formed during the reaction. […] The fold-induction enzyme activity was determined by the ratio:
(§3) Fold of induction = CYP activity(induced) / CYP activity(vehicle)
(§4) % of positive control = (𝑪𝒀𝑷 𝒂𝒄𝒕𝒊𝒗𝒊𝒕𝒚(𝒊𝒏𝒅𝒖𝒄𝒆𝒅)ି 𝑪𝒀𝑷 𝒂𝒄𝒕𝒊𝒗𝒊𝒕𝒚(𝑫𝑴𝑺𝑶))(𝑪𝒀𝑷 𝒂𝒄𝒕𝒊𝒗𝒊𝒕𝒚(𝒑𝒐𝒔𝒊𝒕𝒊𝒗𝒆 𝒄𝒐𝒏𝒕𝒓𝒐𝒍)ି 𝑪𝒀𝑷 𝒂𝒄𝒕𝒊𝒗𝒊𝒕𝒚(𝑫𝑴𝑺𝑶))х 𝟏𝟎𝟎 Based on the enzyme activity, a minimum of 2-fold increase of a response compared to vehicle control and ≥ 20% of the positive control was considered as the cutoff for a positive signal in in vitro induction

[1] = Bidirectional permeability across Caco-2 cell monolayers; type: in vitro ADME; settings: human; for recovery at 120 min, 5 μM: Caco-2, Caco-2, 5 μM; for Papp A→B at 120 min, 5 μM / Papp B→A at 120 min, 5 μM / efflux ratio at 120 min, 5 μM: Caco-2, 5 μM
Description: The bidirectional permeability and absorption mechanism of ZB716 was evaluated across Caco-2 cell monolayers.
The apical-to-basolateral (A–B) and basolateral-to-apical (B–A) transport of ZB716 in HBSS (25 mM HEPES) with 1% BSA was measured across Caco-2 cell monolayers. […] All incubations were performed in triplicate, and the integrity of the cell monolayers was confirmed using the marker Lucifer yellow.
The slope, k, was determined by linear
using the following equation: […]
1.4 Intestinal Mucosal Permeation of ZB716
Papp= VAArea х timeх ሾdrugሿreceiverሾdrugሿinitial,donor

CYP3A4 = test: CYP induction (enzyme activity) in cryopreserved human hepatocytes, CYP3A4; type: in vitro ADME; settings: 30 µM; for fold induction at 72 h, 30 µM: human, plated cryopreserved human hepatocytes
CYP1A2 = test: CYP induction (enzyme activity) in cryopreserved human hepatocytes, CYP1A2; settings: for Percent of Control / fold induction at 72 h, 30 µM: 30 µM; for fold induction at 72 h, 30 µM / fold induction at 72 h, 50 µM: human, plated cryopreserved human hepatocytes
Description: as §1, §2, §3, §4

`CCC1(c2ccccc2)C(=O)NC(=O)NC1=O` [Phenobarbital, phenobarbital, reference compound] gave a fold induction at 72 h, 1000 µM (CYP2B6; donor one) of 5.44 ± 0.13, a fold induction at 72 h, 1000 µM (CYP2B6; donor three) of 6.29 ± 0.9 and a fold induction at 72 h, 1000 µM (CYP2B6; donor two) of 6.86 ± 0.36.

`C[C@H]1O[C@@H](O[C@H]2[C@@H](O)C[C@H](O[C@H]3[C@@H](O)C[C@H](O[C@H]4CC[C@@]5(C)[C@H](CC[C@@H]6[C@@H]5C[C@@H](O)[C@]5(C)[C@@H](C7=CC(=O)OC7)CC[C@]65O)C4)O[C@@H]3C)O[C@@H]2C)C[C@H](O)[C@@H]1O` [Digoxin, digoxin, reference compound] gave a recovery at 120 min, 5 μM ([1]; read-out: Recovery A to B) of 92.4 ± 1%, a recovery at 120 min, 5 μM ([1]; read-out: Recovery B to A) of 86 ± 6% and a Papp A→B at 120 min, 5 μM [1] of 0.687 ± 0.088 ×10⁻⁶ cm/s. The Papp B→A at 120 min, 5 μM [1] was 14.5 ± 1.68 ×10⁻⁶ cm/s and the efflux ratio at 120 min, 5 μM [1] was 21.2 ± 2.

For `CCOC(=O)c1ncn2c1CN(C)C(=O)c1cc(F)ccc1-2` [Flumazenil, flumazenil, reference compound], the “Percent of Control” value (CYP3A4; donor one) was 1.16%, the “Percent of Control” value (CYP3A4; donor three) was 3.11% and the “Percent of Control” value (CYP3A4; donor two) was 4.37%. The fold induction at 72 h, 30 µM (CYP3A4; donor one) was 1.06 ± 0.09, the fold induction at 72 h, 30 µM (CYP3A4; donor three) was 1.23 ± 0.09 and the fold induction at 72 h, 30 µM (CYP3A4; donor two) was 1.39 ± 0.04. For the same compound, the “Percent of Control” value (CYP1A2; donor one) was −2.20%, the “Percent of Control” value (CYP1A2; donor three) was −3.60% and the “Percent of Control” value (CYP1A2; donor two) was 0.450%. It also gave a fold induction at 72 h, 30 µM (CYP1A2; donor one) of 0.818 ± 0.032, a fold induction at 72 h, 30 µM (CYP1A2; donor three) of 0.807 ± 0.177 and a fold induction at 72 h, 30 µM (CYP1A2; donor two) of 1.06 ± 0.11. For the same compound, the “Percent of Control” value (CYP2B6; donor one) was 3.77%, the “Percent of Control” value (CYP2B6; donor three) was 5.23% and the “Percent of Control” value (CYP2B6; donor two) was −3.61%. The fold induction at 72 h, 30 µM (CYP2B6; donor one) was 1.17 ± 0.04, the fold induction at 72 h, 30 µM (CYP2B6; donor three) was 1.28 ± 0.2 and the fold induction at 72 h, 30 µM (CYP2B6; donor two) was 0.789 ± 0.07.

Compound `Nc1cc(N2CCCCC2)nc(N)[n+]1[O-]` [Minoxidil, minoxidil, reference compound] has a recovery at 120 min, 5 μM ([1]; read-out: Recovery A to B) of 91 ± 1.4%, a recovery at 120 min, 5 μM ([1]; read-out: Recovery B to A) of 94.4 ± 48% and a Papp A→B at 120 min, 5 μM [1] of 6.47 ± 0.22 ×10⁻⁶ cm/s. It also gave a Papp B→A at 120 min, 5 μM [1] of 7.44 ± 0.47 ×10⁻⁶ cm/s and an efflux ratio at 120 min, 5 μM [1] of 1.15 ± 0.09.

With `COc1ccc2[nH]c([S+]([O-])Cc3ncc(C)c(OC)c3C)nc2c1` (stereo not shown) [Omeprazole, omeprazole, reference compound] the fold induction at 72 h, 50 µM (CYP1A2; donor one) was 9.28 ± 0.223, the fold induction at 72 h, 50 µM (CYP1A2; donor three) was 6.37 ± 0.14 and the fold induction at 72 h, 50 µM (CYP1A2; donor two) was 15 ± 1.8.
